Measurements from US11629138B2, “Microbiocidal picolinamide derivatives” (Syngenta Participations AG, priority 2017, dated 2023).

How the values were obtained:
[1] = tested on: Botryotinia fuckeliana (Botrytis cinerea); test: Botryotinia fuckeliana (Botrytis cinerea) liquid culture (gray mould); assay type: cell-based; conditions: 200 ppm in the formulation, Vogels broth, 24° C., photometric, 3-4 days after application, vs untreated control, read-out: disease control (inhibition of growth)
Protocol: (§1) Botryotinia fuckeliana (Botrytis cinerea) Liquid Culture (Gray Mould) Conidia of the fungus from cryogenic storage are directly mixed into nutrient broth (Vogels broth). After placing a (DMSO) solution of test compound into a microtiter plate (96-well format), the nutrient broth containing the fungal spores is added. The test plates are incubated at 24° C. and the inhibition of growth is determined photometrically 3-4 days after application.

[2] = tested on: Glomerella lagenarium (Colletotrichum lagenarium); test: Glomerella lagenarium (Colletotrichum lagenarium) / liquid culture (anthracnose); assay type: cell-based; conditions: Colletotrichum orbiculare; 200 ppm in the formulation; PDB broth, 24° C., photometric, 3 to 4 days after application; vs untreated control; read-out: disease control (inhibition of growth)
Protocol: as §1, with “Glomerella lagenarium (Colletotrichum lagenarium)/Liquid” for “Botryotinia fuckeliana (Botrytis cinerea) Liquid”, “(Anthracnose)” for “(Gray Mould)”, “(PDB potato dextrose” for “(Vogels”, “measured” for “determined”, “3 to 4” for “3-4”

[3] = tested on: Monographella nivalis (Microdochium nivale); test: Monographella nivalis (Microdochium nivale) / liquid culture (foot rot cereals); assay type: cell-based; conditions: 200 ppm in the formulation, PDB broth, 24° C., photometric, 4-5 days after application, vs untreated control, read-out: disease control (inhibition of growth)
Protocol: as §1, with “Monographella nivalis (Microdochium nivale)/Liquid” for “Botryotinia fuckeliana (Botrytis cinerea) Liquid”, “(Foot Rot Cereals)” for “(Gray Mould)”, “(PDB potato dextrose” for “(Vogels”, “4-5” for “3-4”

[4] = tested on: Mycosphaerella arachidis (Cercospora arachidicola); test: Mycosphaerella arachidis (Cercospora arachidicola) / liquid culture (early leaf spot); assay type: cell-based; conditions: 200 ppm in the formulation, PDB broth, 24° C., photometric, 4-5 days after application, vs untreated control, read-out: disease control (inhibition of growth)
Protocol: as §1, with “Mycosphaerella arachidis (Cercospora arachidicola)/Liquid” for “Botryotinia fuckeliana (Botrytis cinerea) Liquid”, “(Early Leaf Soot)” for “(Gray Mould)”, “(PDB potato dextrose” for “(Vogels”, “4-5” for “3-4”

[5] = tested on: Mycosphaerella graminicola (Septoria tritici); test: Mycosphaerella graminicola (Septoria tritici) / liquid culture (Septoria blotch); assay type: cell-based; conditions: Zymoseptoria tritici; 200 ppm in the formulation; PDB broth, 24° C., photometric, 4 to 5 days after application; vs untreated control; read-out: disease control (inhibition of growth)
Protocol: as §1, with “Mycosphaerella graminicola (Septoria tritici)/Liquid” for “Botryotinia fuckeliana (Botrytis cinerea) Liquid”, “(Septoria Blotch)” for “(Gray Mould)”, “(PDB potato dextrose” for “(Vogels”, “4 to 5” for “3-4”

[6] = tested on: Phaeosphaeria nodorum (Setoria nodorum); test: Phaeosphaeria nodorum (Septoria nodorum) / wheat / leaf disc preventative (glume blotch); assay type: in vivo; conditions: Parastagonospora nodorum, foliar, 200 ppm in the formulation, wheat leaf segments cv. Kanzler, 5-7 days after application, vs untreated control, read-out: disease control
Protocol: Phaeosphaeria nodorum (Setoria nodorum)/Wheat/Leaf Disc Preventative (Glume Blotch) Wheat leaf segments cv. Kanzler are placed on agar in a multiwell plate (24-well format) and sprayed with the formulated test compound diluted in water. The leaf disks are inoculated with a spore suspension of the fungus 2 days after application. The inoculated test leaf disks are incubated at 20° C. and 75% rh under a light regime of 12 h light/12 h darkness in a climate cabinet and the activity of a compound is assessed as percent disease control compared to untreated when an appropriate level of disease damage appears in untreated check leaf disks (5-7 days after application).

[7] = tested on: Puccinia recondita f. so. tritici; test: Puccinia recondita f. sp. tritici / wheat / leaf disc preventative (brown rust); assay type: in vivo; conditions: foliar, 200 ppm in the formulation, wheat leaf segments cv. Kanzler, 7-9 days after application, vs untreated control, read-out: disease control
Protocol: Puccinia recondita f. so. tritici/Wheat/Leaf Disc Preventative (Brown Rust)
Wheat leaf segments cv. Kanzler are placed on agar in multiwell plates (24-well format) and sprayed with the formulated test compound diluted in water. The leaf disks are inoculated with a spore suspension of the fungus 1 day after application. The inoculated leaf segments are incubated at 19° C. and 75% rh under a light regime of 12 h light/12 h darkness in a climate cabinet and the activity of a compound is assessed as percent disease control compared to untreated when an appropriate level of disease damage appears in untreated check leaf segments (7-9 days after application).

COc1ccnc(C(=O)N[C@@H](C)C(=O)OC(C)C(C)n2ccc3c(Br)ccc(F)c32)c1O (stereo partly drawn) [I.ab.001, [2-(4-bromo-7-fluoro-indol-1-yl)-1-methyl-propyl] (2S)-2-[(3-hydroxy-4-methoxy-pyridine-2-carbonyl)amino]propanoate]
≥ 80%: inhibition at 200 ppm [1] | inhibition at 200 ppm [2] | inhibition at 200 ppm [3] | inhibition at 200 ppm [4] | inhibition at 200 ppm [5] | pest or weed control at 200 ppm [6] | pest or weed control at 200 ppm [7]

COc1ccnc(C(=O)N[C@@H](C)C(=O)OC(C)C(C)n2ncc3ccccc32)c1O (stereo partly drawn) [I.ae.001, (2-indazol-1-yl-1-methyl-propyl) (2S)-2-[(3-hydroxy-4-methoxy-pyridine-2-carbonyl)amino]propanoate]
≥ 80%: inhibition at 200 ppm [4] | inhibition at 200 ppm [5] | pest or weed control at 200 ppm [7]

COc1ccnc(C(=O)N[C@@H](C)C(=O)OC(C)C(C)n2cc(C#N)c(-c3cccc(Cl)c3Cl)c2)c1O (stereo partly drawn) [I.ag.001, [2-[3-cyano-4-(2,3-dichlorophenyl)pyrrol-1-yl]-1-methyl-propyl] (2S)-2-[(3-hydroxy-4-methoxy-pyridine-2-carbonyl)amino] propanoate]
≥ 80%: inhibition at 200 ppm [1] | inhibition at 200 ppm [2] | inhibition at 200 ppm [3] | inhibition at 200 ppm [5]

COc1ccnc(C(=O)N[C@@H](C)C(=O)OC(C)C(C)n2cc(C#N)c(-c3ccccc3Cl)c2)c1O (stereo partly drawn) [I.ah.001, [2-[3-(2-chlorophenyl)-4-cyano-pyrrol-1-yl]-1-methyl-propyl] (2S)-2-[(3-hydroxy-4-methoxy-pyridine-2-carbonyl)amino]propanoate]
≥ 80%: inhibition at 200 ppm [1] | inhibition at 200 ppm [2] | inhibition at 200 ppm [3] | inhibition at 200 ppm [4] | inhibition at 200 ppm [5]

COc1ccnc(C(=O)N[C@@H](C)C(=O)OC(C)C(C)c2sc3ccc(Cl)cc3c2C)c1O (stereo partly drawn) [I.at.001, [2-(5-chloro-3-methyl-benzothiophen-2-yl)-1-methyl-propyl] (2S)-2-[(3-hydroxy-4-methoxy-pyridine-2-carbonyl)amino]propanoate]
≥ 80%: inhibition at 200 ppm [2] | inhibition at 200 ppm [3] | inhibition at 200 ppm [4] | inhibition at 200 ppm [5] | pest or weed control at 200 ppm [6] | pest or weed control at 200 ppm [7]

COc1ccnc(C(=O)N[C@@H](C)C(=O)OC(C)C(C)n2ccc3cc(Cl)c(Cl)cc32)c1O (stereo partly drawn) [I.au.001, [2-(5,6-dichloroindol-1-yl)-1-methyl-propyl] (2S)-2-[(3-hydroxy-4-methoxy-pyridine-2-carbonyl)amino] propanoate]
≥ 80%: inhibition at 200 ppm [1] | inhibition at 200 ppm [2] | inhibition at 200 ppm [3] | inhibition at 200 ppm [4] | inhibition at 200 ppm [5] | pest or weed control at 200 ppm [7]

COc1ccnc(C(=O)N[C@@H](C)C(=O)OC(C)C(C)n2ccc3cc(F)c(Cl)cc32)c1O (stereo partly drawn) [I.av.001, [2-(6-chloro-5-fluoro-indol-1-yl)-1-methyl-propyl] (2S)-2-[(3-hydroxy-4-methoxy-pyridine-2-carbonyl)amino]propanoate]
≥ 80%: inhibition at 200 ppm [2] | inhibition at 200 ppm [4] | inhibition at 200 ppm [5] | pest or weed control at 200 ppm [7]

COc1ccnc(C(=O)N[C@@H](C)C(=O)OC(C)C(C)n2ccc3cc(F)c(Br)cc32)c1O (stereo partly drawn) [I.aw.001, [2-(6-bromo-5-fluoro-indol-1-yl)-1-methyl-propyl] (2S)-2-[(3-hydroxy-4-methoxy-pyridine-2-carbonyl)amino]propanoate]
≥ 80%: inhibition at 200 ppm [2] | inhibition at 200 ppm [4] | inhibition at 200 ppm [5] | pest or weed control at 200 ppm [7]

COc1ccnc(C(=O)N[C@@H](C)C(=O)OC(C)C(C)n2ccc3cc(F)cc(F)c32)c1O (stereo partly drawn) [I.ay.001, [2-(5,7-difluoroindol-1-yl)-1-methyl-propyl] (2S)-2-[(3-hydroxy-4-methoxy-pyridine-2-carbonyl)amino] propanoate]
≥ 80%: inhibition at 200 ppm [2] | inhibition at 200 ppm [3] | inhibition at 200 ppm [4] | inhibition at 200 ppm [5] | pest or weed control at 200 ppm [6] | pest or weed control at 200 ppm [7]

COc1ccnc(C(=O)N[C@@H](C)C(=O)OC(C)C(C)n2ccc3c(Cl)ccc(Cl)c32)c1OC(C)=O (stereo partly drawn) [I.bb.041, [2-(4,7-dichloroindol-1-yl)-1-methyl-propyl] (2S)-2-[(3-acetoxy-4-methoxy-pyridine-2-carbonyl)amino] propanoate]
≥ 80%: inhibition at 200 ppm [2] | inhibition at 200 ppm [3] | inhibition at 200 ppm [4] | inhibition at 200 ppm [5] | pest or weed control at 200 ppm [6] | pest or weed control at 200 ppm [7]

COc1ccnc(C(=O)N[C@@H](C)C(=O)OC(C)C(C)c2ccc3ccccc3n2)c1O (stereo partly drawn) [I.s.001, [1-methyl-2-(2-quinolyl)propyl] (2S)-2-[(3-hydroxy-4-methoxy-pyridine-2-carbonyl)amino]propanoate]
≥ 80%: inhibition at 200 ppm [1] | inhibition at 200 ppm [2] | inhibition at 200 ppm [3] | inhibition at 200 ppm [4] | inhibition at 200 ppm [5] | pest or weed control at 200 ppm [7]

COc1ccnc(C(=O)N[C@@H](C)C(=O)OC(C)C(C)n2ccc3ccc(F)cc32)c1O (stereo partly drawn) [I.v.001, [2-(6-fluoroindol-1-yl)-1-methyl-propyl] (2S)-2-[(3-hydroxy-4-methoxy-pyridine-2-carbonyl)amino]propanoate]
≥ 80%: inhibition at 200 ppm [1] | inhibition at 200 ppm [2] | inhibition at 200 ppm [3] | inhibition at 200 ppm [4] | inhibition at 200 ppm [5] | pest or weed control at 200 ppm [7]

COc1ccnc(C(=O)N[C@@H](C)C(=O)OC(C)C(C)n2ccc3cc(F)ccc32)c1O (stereo partly drawn) [I.w.001, [2-(5-fluoroindol-1-yl)-1-methyl-propyl] (2S)-2-[(3-hydroxy-4-methoxy-pyridine-2-carbonyl)amino]propanoate]
≥ 80%: inhibition at 200 ppm [1] | inhibition at 200 ppm [2] | inhibition at 200 ppm [3] | inhibition at 200 ppm [4] | inhibition at 200 ppm [5] | pest or weed control at 200 ppm [7]

COc1ccnc(C(=O)N[C@@H](C)C(=O)OC(C)C(C)n2ccc3ccc(Cl)cc32)c1O (stereo partly drawn) [I.x.001, [2-(6-chloroindol-1-yl)-1-methyl-propyl] (2S)-2-[(3-hydroxy-4-methoxy-pyridine-2-carbonyl)amino]propanoate]
≥ 80%: inhibition at 200 ppm [1] | inhibition at 200 ppm [2] | inhibition at 200 ppm [4] | inhibition at 200 ppm [5] | pest or weed control at 200 ppm [7]

COc1ccnc(C(=O)N[C@@H](C)C(=O)OC(C)C(C)n2ccc3ccc(C(F)(F)F)cc32)c1O (stereo partly drawn) [I.z.001, [1-methyl-2-[6-(trifluoromethyl)indol-1-yl]propyl] (2S)-2-[(3-hydroxy-4-methoxy-pyridine-2-carbonyl)amino]propanoate]
≥ 80%: inhibition at 200 ppm [1] | inhibition at 200 ppm [2] | inhibition at 200 ppm [3] | inhibition at 200 ppm [4] | inhibition at 200 ppm [5] | pest or weed control at 200 ppm [6] | pest or weed control at 200 ppm [7]
